Entries after “also recorded” stand apart in the source; their conditions may differ. Where no end group is shown, it is not given here.
Legend:
[1] = tested on: anti-rPA serum IgG; design: species or system C3H/HeN female mice; settings: mouse, in vivo
[2] = tested on: anthrax lethal toxin; design: species or system C3H/HeN female mice; settings: mouse, in vivo
[3] = tested on: MC/9 mast cells; type: cell-based, murine; design: MCD10: concentration of peptide necessary to induce degranulation of 10% of mast cells: unit not given here
[4] = tested on: anti-rPA IgG; design: species or system female C3H/HeN mice; settings: mouse, in vivo
[5] = tested on: anti-PA IgG; design: species or system Female C3H/HeN mice; settings: mouse, in vivo

INLKALAALAKKIL-NH2 [Mastoparan]
serum anti-PA IgG geometric means titers (GMT), adjuvant activity [1]: significantly increased | lethal toxin neutralizing antibody response in serum [2]: neutralized anthrax lethal toxin; also recorded: significantly increased versus all other groups | % MC/9 Degranulation [3]: 66.60% | MCD10: concentration of peptide necessary to induce degranulation of 10% of mast cells [3]: 33.07 | mast cell degranulation (β-hexosaminidase released into the culture medium) [3]: induced mast cell degranulation | serum anti-rPA IgG titer versus mice immunized with rPA alone [4]: significantly greater | adjuvant activity as determined by serum anti-PA IgG endpoint titers [5]: provided adjuvant activity

— patent publication US9301999B2 (priority 2009, dated 2016)
